The test system of data set [1] is Escherichia coli. Nature of the data set: Antibacterial activity against Escherichia coli expressing NDM-1 assessed as decrease in meropenem MIC at 4 mg/L incubated for 18 to 20 hrs by broth microdilution method. It is filed as functional. The conditions noted are these: time 18-20 hrs. In general terms: Dilution methods test growth across graded concentrations, often in twofold steps.

Data set [2] is described as follows: Inhibition of NDM-1 (unknown origin). Details: species or system Homo sapiens.
A short description of data set [3]: Inhibition of NDM-1 (unknown origin) by HPLC analysis. Details: species or system Homo sapiens.
Data set [4] in a line: Inhibition of NDM-1 (unknown origin) expressed in Escherichia coli Zc-YN3.
Data set [5] is described as follows: Inhibition of NDM-1 (unknown origin) using cefuroxime sodium as substrate incubated for 5 mins by UV-1800 spectrophotometric analysis. On the set-up: species or system Homo sapiens.
The nature of data set [6]: Inhibition of NDM-1 (unknown origin) using cefazolin as substrate incubated for 12 hrs by Agilent UV8453 UV-Vis spectrometric analysis. On the set-up: species or system Homo sapiens.
Data set [7] is described as follows: Binding affinity to NDM-1 (unknown origin) assessed as kinetic constant using cefazolin as substrate preincubated for 60 sec followed by cefazolin addition after 60 sec by isothermal titration calorimetric assay. On the set-up: species or system Homo sapiens.
For another data set, the species on record is Homo sapiens. The experiment in a line: Inhibition of NDM-1 (unknown origin) at 16 uM using cefazolin as substrate incubated for 12 hrs by Agilent UV8453 UV-Vis spectrometric analysis relative to control.
Data set [8] is described as follows: Inhibition of NDM-1 (unknown origin) expressed in Escherichia coli. On the set-up: species or system Homo sapiens.
Data set [9] in a line: Oral bioavailability in BALB/c mouse relative to control. The conditions noted are these: in vivo. It is filed as ADME, organism-based.
Data set [10] is described as follows: Inhibition of NDM-1 (unknown origin) by using nitrocefin as substrate preincubated for 10 min followed by nitrocefin addition incubated after 30 min. Details: species or system Homo sapiens.
Data set [11] in a line: Binding affinity to NDM-1 (unknown origin) assessed as inhibition constant using cefazolin as substrate incubated for 5 mins measured for every 1 sec by isothermal titration calorimetric analysis. Details: species or system Homo sapiens. A general note: Isothermal titration calorimetry measures the heat released or taken up as one component is titrated into another.
For data set [12], the system named is Citrobacter freundii. Nature of the data set: Antibacterial activity against Citrobacter freundii expressing NDM-1 assessed as decrease in meropenem MIC at 8 mg/L incubated for 18 to 20 hrs by broth microdilution method. In kind it is functional. The conditions noted are these: time 18-20 hrs.
In data set [13] the test system is Citrobacter freundii. The experiment in a line: Antibacterial activity against Citrobacter freundii expressing NDM-1 assessed as decrease in meropenem MIC at 4 mg/L incubated for 18 to 20 hrs by broth microdilution method. It is filed as functional. The conditions noted are these: time 18-20 hrs.
The nature of data set [14]: Inhibition of NDM-1 (unknown origin) measured after 10 mins. Details: species or system Homo sapiens.
The next data set deals with Klebsiella pneumoniae. The experiment in a line: Synergistic antibacterial activity against carbapenem-resistant Klebsiella pneumoniae expressing NDM-1 measured after 18 hrs in the presence of meropenem. It is filed as functional.
Data set [15] deals with Escherichia coli. Nature of the data set: Antibacterial activity against Escherichia coli measured after 18 hrs. In kind it is functional.
Data set [16] deals with Escherichia coli. Nature of the data set: Synergistic antibacterial activity against Escherichia coli BL21 (DE3) expressing NDM-1 incubated for 12 hrs in the presence of cefuroxime sodium by two-fold checkerboard microdilution method. It is filed as functional.
Data set [17] can be described thus: Inhibition of NDM-1 (unknown origin) using nitrocefin as substrate. On the set-up: species or system Homo sapiens.
Data set [18] can be described thus: Inhibition of NDM-1 (unknown origin) using meropenem as substrate incubated for 10 mins. Details: species or system Homo sapiens.
Data set [19] is described as follows: Binding affinity to NDM-1 (unknown origin) assessed as inhibition constant using meropenem as substrate incubated for 10 mins. On the set-up: species or system Homo sapiens.
In the next data set the test system is L929. The experiment in a line: Cytotoxicity against mouse L929 cells at 250 uM incubated for 48 hrs by MTT assay relative to control. In kind it is toxicity, cell-based. Conditions: l929, 48 h. On the technique in general: Formazan colour is commonly taken as a measure of viable cells.

≈ marks a conversion by molar mass, not a printed value. Where a SMILES comes first, the peptide text is derived from it. [ ]: non-standard residue; d: D form. The star is where a group is joined. NODAGA = O=C(O)CN1CCN(CC(=O)O)CCN(C(CCC(=O)*)C(=O)O)CC1; NMeA = CN[CH](C)C(=O)O A value given as a limit tells only on which side of the number the result lay.

Regarding `CC(C(=O)NC(Cc1ccccc1)C(=O)N(C)C(C)C(=O)NC(Cc1ccccc1)C(N)=O)N(C)C(=O)CCC(C(=O)O)N1CCN(CC(=O)O)CCN(CC(=O)O)CC1` (configuration not stated) ({NODAGA}-[NMeA]F[NMeA]F-NH2; configuration not given here), the MIC in the data set on Escherichia coli [1] stood at 0.125 µg/mL.

Regarding `COC(=O)C[C@H]1[C@]2(C)C3=C(C)[C@H](c4ccoc4)C[C@H]3O[C@@H]2[C@@H]2OC(=O)[C@]3(C)C=CC(=O)[C@@]1(C)[C@@H]23` [NIMBOLIDE], in data set [2], half-maximal inhibition (IC50) was put at 1.34 µM.

In data set [3], `O=C(O)[C@H]1O[C@@H](Oc2cc3oc(-c4ccccc4)cc(=O)c3c(O)c2O)[C@H](O)[C@@H](O)[C@@H]1O` [BAICALIN] showed an IC50 of 3.89 µM.

For `C=CCc1ccc(O)c(-c2cc(CC=C)ccc2O)c1` [MAGNOLOL], the IC50 in data set [4] stood at 6.47 µM.

Consider `COc1ccc([C@@H]2CC(=O)c3c(O)cc(O[C@@H]4O[C@H](CO[C@@H]5O[C@@H](C)[C@H](O)[C@@H](O)[C@H]5O)[C@@H](O)[C@H](O)[C@H]4O)cc3O2)cc1O` [HESPERIDIN], for which, in data set [5], the IC50 worked out at 3.35 µM.

Take `O=C(O)C(=O)CBr` [BROMOPYRUVATE]: in [6], the midpoint of inhibition, the IC50, lay at 2.57 µM. Moreover, the inhibition constant (Ki) in [7] was 3.8 µM. In addition, the inhibition in the data set listed under Homo sapiens is over 90%.

Turning to `O=C(O)CN(CCN(CC(=O)O)CC(=O)O)CC(=O)O` [EDETIC ACID], in data set [2], the IC50 was 1.6 µM.

In data set [8], `CC1(C)S[C@@H]2CS[C@@H](CS)N2[C@H]1C(=O)O` gave an IC50 of 180 µM.

In turn, `COc1cc(/C=C/c2ccc(O)cc2)cc(OC)c1` [PTEROSTILBENE] registered a bioavailability in data set [9] of 80%. Besides, the IC50 in [10] turned out to be 15.37 µg/mL (≈ 60 µM).

Take `O=C(NNC(=S)S)c1ccccc1O`: the Ki in [11] is 0.29 µM.

Turning to `O=C(O)[C@H]1SC[C@@H]2CS[C@@H](CS)N21`, the IC50 in data set [8] stood at 109 µM.

The molecule `CC1(C)S[C@H]2CS[C@H](CS)N2[C@@H]1C(=O)O` returned an IC50 in [8] of 200 µM.

With `c1ccc(CN(CCN(Cc2ccccn2)Cc2ccccn2)Cc2ccccn2)nc1`, the MIC in the data set with Citrobacter freundii [12] was determined as 0.06 µg/mL; with Citrobacter freundii [13], 0.5 µg/mL.

For `O=C(O)CN1CCN(CC(=O)O)CCN(CC(=O)O)CC1`, the MIC in the data set with Escherichia coli [1] stood at 0.125 µg/mL.

For the molecule `O=C1N(Cc2cccc3ccccc23)c2ccccc2C12NN=C(c1ccccc1)S2` (configuration not stated), the IC50 in data set [14] stood at 6.6 µM. The MIC in the data set on Klebsiella pneumoniae turned out to be 2 µM; against Escherichia coli [15], 4 µM (≈ 1.69 µg/mL).

For `CC1(C)S[C@@H]2[C@H](NC(=O)[C@H](N)c3ccccc3)C(=O)N2[C@H]1C(=O)O` [AMPICILLIN], the MIC in the data set with Escherichia coli [16] stood at 32 µM.

In the case of `N[C@@H](CN[C@@H](CN[C@@H](CC(=O)O)C(=O)O)C(=O)O)C(=O)O`, in data set [17], half-maximal inhibition (IC50) was put at 4 µM.

`CCCCCCCCCCCC1=C(O)C(=O)C=C(O)C1=O` [EMBELIN] had an IC50 in data set [18] of 2.1 µM. Further, in [19], the Ki came to 0.19 µM.

`O=C(NNC(=S)[S][K])c1ccccc1O` returned an Activity with L929 of over 80%.

Molecule `O=C(O)[C@@H]1SC[C@H]2CS[C@H](CS)N21` returned an IC50 in data set [8] of 23 µM.

For orientation: MIC means the lowest concentration that inhibits growth of the organism. What is called IC50 is the concentration that inhibits the measured activity by half. A low value points to greater potency in that assay. The term Ki denotes a dissociation constant, usually derived from enzyme kinetics or from competition with a known ligand. In general, inhibition refers to the drop in the measured response relative to a control, in per cent. Low values mean little suppression, high ones strong suppression. Broadly, the bioavailability is the share of a dose that reaches the circulation, judged against a reference dose that is usually intravenous. Read a low bioavailability as little systemic uptake.

The values are drawn from ChEMBL document CHEMBL5096195, “Recent research and development of NDM-1 inhibitors” (Eur J Med Chem, 2021).
